Experimental data published in PubChem BioAssay AID248 (DTP/NCI, 2004).
“And” between values parts separate entries of the source, which are not always exact repeats. Equal entries are not always repeated. Inconclusive results and toxic doses are left out. Rule as the data show it: active = T/C of 150% or more; inactive = T/C below 125%.

Test system: L1210 leukemia ip in BDF1 mice, survival T/C
Assay: NCI In Vivo Anticancer Drug Screen. Data for tumor model L1210 Leukemia (intraperitoneal) in B6D2F1 (BDF1) mice
Conditions: endpoint: mean survival time, higher = longer survival
How it was run: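 Tumor was transplanted into mice, which were then dosed with test compound or vehicle alone. Survival was recorded for each group, and the treated figure was expressed relative to the control figure.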

[1] = dose: 100.0 mg/kg/injection, schedule: Q01DX001 (ip), vehicle: saline
[2] = dose: 200.0 mg/kg/injection, schedule: Q01DX001 (ip), vehicle: saline
[3] = dose: 400.0 mg/kg/injection, schedule: Q01DX001 (ip), vehicle: saline
[4] = dose: 100.0 mg/kg/injection, schedule: Q01DX009 (ip), vehicle: saline
[5] = dose: 100.0 mg/kg/injection, schedule: Q04DX003 (ip), vehicle: saline
[6] = dose: 200.0 mg/kg/injection, schedule: Q01DX009 (ip), vehicle: saline
[7] = dose: 200.0 mg/kg/injection, schedule: Q04DX003 (ip), vehicle: saline
[8] = dose: 400.0 mg/kg/injection, schedule: Q01DX009 (ip), vehicle: saline
[9] = dose: 400.0 mg/kg/injection, schedule: Q04DX003 (ip), vehicle: saline
[10] = dose: 100.0 mg/kg/injection, schedule: Q01DX009 (ip), vehicle: saline with Tween-80
[11] = dose: 100.0 mg/kg/injection, schedule: Q04DX002 (ip), vehicle: saline with Tween-80
[12] = dose: 100.0 mg/kg/injection, schedule: Q04DX003 (ip), vehicle: saline with Tween-80
[13] = dose: 200.0 mg/kg/injection, schedule: Q01DX009 (ip), vehicle: saline with Tween-80
[14] = dose: 200.0 mg/kg/injection, schedule: Q04DX002 (ip), vehicle: saline with Tween-80
[15] = dose: 200.0 mg/kg/injection, schedule: Q04DX003 (ip), vehicle: saline with Tween-80
[16] = dose: 400.0 mg/kg/injection, schedule: Q04DX002 (ip), vehicle: saline with Tween-80
[17] = dose: 400.0 mg/kg/injection, schedule: Q04DX003 (ip), vehicle: saline with Tween-80
[18] = dose: 100.0 mg/kg/injection, schedule: Q01DX001 (ip), vehicle: other
[19] = dose: 200.0 mg/kg/injection, schedule: Q01DX001 (ip), vehicle: other
[20] = dose: 400.0 mg/kg/injection, schedule: Q01DX001 (ip), vehicle: other
[21] = dose: 50.0 mg/kg/injection, schedule: Q01DX009 (ip), vehicle: saline with Tween-80
[22] = dose: 50.0 mg/kg/injection, schedule: Q04DX003 (ip), vehicle: saline with Tween-80

Measured: T/C

CNC(=O)Oc1c(C)occc1=O
inactive: dose: 75.0 mg/kg/injection, schedule: Q01DX009 (ip), vehicle: other 100 % of control | dose: 75.0 mg/kg/injection, schedule: Q01DX009 (ip), vehicle: saline with Tween-80 103 % of control | [1] 106 % of control | dose: 135.0 mg/kg/injection, schedule: Q01DX009 (ip), vehicle: other 111 % of control | dose: 150.0 mg/kg/injection, schedule: Q01DX009 (ip), vehicle: other 104 % of control | dose: 150.0 mg/kg/injection, schedule: Q01DX009 (ip), vehicle: saline with Tween-80 111 % of control | [2] 101 % of control | dose: 200.0 mg/kg/injection, schedule: Q01DX009 (ip), vehicle: other 108 % of control | dose: 300.0 mg/kg/injection, schedule: Q01DX009 (ip), vehicle: other 116 % of control | dose: 300.0 mg/kg/injection, schedule: Q01DX009 (ip), vehicle: saline with Tween-80 106 % of control | [3] 105 % of control

CCN(CC)C(=O)/C=C/c1ccccc1
inactive: dose: 50.0 mg/kg/injection, schedule: Q01DX001 (ip), vehicle: saline 102 % of control | [1] 96 % of control | [2] 96 % of control

CCO/N=C(/N)N=C(N)N
inactive: [1] 92 % of control | [4] 106 % of control | [5] 95 % of control | [2] 97 % of control | [6] 107 % of control | [7] 91 % of control | [3] 92 % of control | [8] 97 % of control | [9] 91 % of control

CCOC(=O)/C=C\n1c(=O)cc(C)c2cc3c(C)cc(=O)n(C)c3cc21
inactive: dose: 50.0 mg/kg/injection, schedule: Q01DX001 (ip), vehicle: Klucel (hydroxypropylcellulose) (HPC) 99 % of control | dose: 100.0 mg/kg/injection, schedule: Q01DX001 (ip), vehicle: Klucel (hydroxypropylcellulose) (HPC) 87 % of control | dose: 200.0 mg/kg/injection, schedule: Q01DX001 (ip), vehicle: Klucel (hydroxypropylcellulose) (HPC) 92 % of control

CCCC#CCOCC(O)CCl (stereo unspecified)
inactive: dose: 100.0 mg/kg/injection, schedule: Q01DX009 (ip), vehicle: saline sonified 105 % of control | dose: 100.0 mg/kg/injection, schedule: Q04DX003 (ip), vehicle: saline sonified 91 % of control | dose: 200.0 mg/kg/injection, schedule: Q01DX009 (ip), vehicle: saline sonified 101 % of control | dose: 200.0 mg/kg/injection, schedule: Q04DX003 (ip), vehicle: saline sonified 94 % of control | dose: 400.0 mg/kg/injection, schedule: Q01DX009 (ip), vehicle: saline sonified 105 % of control | dose: 400.0 mg/kg/injection, schedule: Q04DX003 (ip), vehicle: saline sonified 94 % of control

CC(=O)C(C#N)C(C)=O.CC(=O)C(C#N)C(C)=O.[Mn]
inactive: [4] 107 % of control | [5] 105 % of control | [7] 102 % of control

COC(=O)c1ccc(OC(=O)Nc2ccccc2[N+](=O)[O-])cc1
inactive: [10] 97 % of control and 101 % of control | [11] 104 % of control and 110 % of control | [12] 107 % of control | [13] 96 % of control and 92 % of control | [14] 103 % of control and 104 % of control | [15] 113 % of control | [16] 94 % of control | [17] 101 % of control

Nn1cn[nH]c1=S
inactive: [5] 98 % of control | [7] 103 % of control | [9] 98 % of control

Cn1c(=O)c2[nH]c(CC3=CCCCC3)nc2n(C)c1=O
inactive: dose: 50.0 mg/kg/injection, schedule: Q01DX001 (ip), vehicle: other 97 % of control | [18] 92 % of control | [19] 95 % of control | [20] 90 % of control

O=C1C=C(Nc2ccc(Cl)cc2)c2ccccc2C1=O
inactive: [18] 98 % of control | [19] 90 % of control | [20] 95 % of control

Nc1cccc(OCCCCOc2cccc(N)c2)c1
inactive: [21] 93 % of control | [10] 101 % of control | [13] 107 % of control

CCOC(=O)C(=N\Nc1ccccc1OC)/C(C)=N\NC(N)=S
inactive: dose: 75.0 mg/kg/injection, schedule: Q01DX001 (ip), vehicle: acetone 93 % of control | dose: 150.0 mg/kg/injection, schedule: Q01DX001 (ip), vehicle: acetone 90 % of control | dose: 150.0 mg/kg/injection, schedule: Q01DX001 (ip), vehicle: saline 94 % of control

[O-][N+](=Nc1cccc(Cl)c1)c1cccc(Cl)c1
inactive: [21] 97 % of control | [22] 102 % of control | [10] 101 % of control | [12] 98 % of control | [13] 97 % of control | [15] 112 % of control

Cc1ccc(N(C)CC#CCOc2ccc(Br)cc2)cc1
inactive: dose: 100.0 mg/kg/injection, schedule: Q04DX002 (ip), vehicle: Klucel (hydroxypropylcellulose) (HPC) 105 % of control | dose: 200.0 mg/kg/injection, schedule: Q04DX002 (ip), vehicle: Klucel (hydroxypropylcellulose) (HPC) 99 % of control | dose: 400.0 mg/kg/injection, schedule: Q04DX002 (ip), vehicle: Klucel (hydroxypropylcellulose) (HPC) 99 % of control

CC(=O)Nc1ccc(C(=O)O)c([N+](=O)[O-])c1
inactive: [4] 100 % of control | [5] 104 % of control | [6] 94 % of control | [7] 104 % of control | [8] 93 % of control | [9] 94 % of control

CCOC(=O)c1ccc(NC(=O)Nc2cccc3c(O)cccc23)cc1
inactive: [22] 102 % of control | dose: 100.0 mg/kg/injection, schedule: Q01DX001 (ip), vehicle: saline with Tween-80 86 % of control | [10] 86 % of control | [11] 97 % of control and 106 % of control | [12] 94 % of control | dose: 200.0 mg/kg/injection, schedule: Q01DX001 (ip), vehicle: saline with Tween-80 86 % of control | [13] 89 % of control | [14] 97 % of control and 91 % of control | [15] 93 % of control and 87 % of control | dose: 400.0 mg/kg/injection, schedule: Q01DX009 (ip), vehicle: saline with Tween-80 89 % of control | [16] 89 % of control and 91 % of control | [17] 97 % of control

S=C(Nc1ccccc1)NC1CCC(CC2CCCCC2)CC1 (stereo unspecified)
inactive: dose: 75.0 mg/kg/injection, schedule: Q01DX009 (ip), vehicle: Klucel (hydroxypropylcellulose) (HPC) 105 % of control | dose: 100.0 mg/kg/injection, schedule: Q04DX003 (ip), vehicle: Klucel (hydroxypropylcellulose) (HPC) 108 % of control | dose: 150.0 mg/kg/injection, schedule: Q01DX009 (ip), vehicle: Klucel (hydroxypropylcellulose) (HPC) 107 % of control | dose: 200.0 mg/kg/injection, schedule: Q04DX003 (ip), vehicle: Klucel (hydroxypropylcellulose) (HPC) 108 % of control

CCCCCCC(=O)N(CC)C(=NCC)c1ccc(NC(=O)c2ccc(C(=O)Nc3ccc(C(=NCC)N(CC)C(=O)CCCCCC)cc3)cc2)cc1
inactive: dose: 3.75 mg/kg/injection, schedule: Q01DX015 (ip), vehicle: methylcellulose (MC) 98 % of control | dose: 7.5 mg/kg/injection, schedule: Q01DX015 (ip), vehicle: methylcellulose (MC) 101 % of control | dose: 15.0 mg/kg/injection, schedule: Q01DX015 (ip), vehicle: methylcellulose (MC) 98 % of control | dose: 30.0 mg/kg/injection, schedule: Q01DX015 (ip), vehicle: methylcellulose (MC) 90 % of control | dose: 62.0 mg/kg/injection, schedule: Q01DX015 (ip), vehicle: methylcellulose (MC) 93 % of control | dose: 125.0 mg/kg/injection, schedule: Q01DX015 (ip), vehicle: methylcellulose (MC) 90 % of control | dose: 250.0 mg/kg/injection, schedule: Q01DX015 (ip), vehicle: methylcellulose (MC) 87 % of control | dose: 500.0 mg/kg/injection, schedule: Q01DX015 (ip), vehicle: methylcellulose (MC) 86 % of control

O=C(Nc1ccccn1)NC1CCCCC1
inactive: dose: 100.0 mg/kg/injection, schedule: Q01DX009 (ip), vehicle: Klucel (hydroxypropylcellulose) (HPC) 98 % of control | dose: 200.0 mg/kg/injection, schedule: Q01DX009 (ip), vehicle: Klucel (hydroxypropylcellulose) (HPC) 105 % of control | dose: 400.0 mg/kg/injection, schedule: Q01DX009 (ip), vehicle: Klucel (hydroxypropylcellulose) (HPC) 98 % of control
